Test results reported in US20110217293A1, “Uses of morelloflavone” (priority 2008, published 2011).
“Also recorded” adds a separate entry of the source.

Assays:
c-Src = assay: Western blot, phosphorylation of c-Src; assay type: cell-based, mouse; conditions: low concentrations (0.1 & 1 mM), 5 min
Experimental: For the evaluation of phosphorylated FAK and c-Src, Western blot analyses were performed as described (15). Briefly, vascular smooth muscle cells were seeded on 10-cm dishes, treated with various concentrations of morelloflavone for 5 min, and harvested into RIPA buffer with protease inhibitor cocktails. Cleared cell lysates ([…] of protein) were incubated with anti-FAK or anti-c-Src antibodies at 4° C. for 1 hr in a final volume of 1 mL RIPA buffer, and incubated for another 1 hr with protein A/G agarose beads (Santa Cruz; SCBT sc-2003). Immunoprecipitated proteins were eluted into SDS-loading 7 buffer and subjected to 12% SDS-PAGE and immunoblotting using anti-FAK (Santa Cruz; A-17; sc-557) and anti-c-Src (Santa Cruz; SRC-2; sc-18) antibodies for total FAK and c-Src, respectively, and anti-phosphotyrosine antibody (Santa Cruz; PY-20; sc-508) for phosphorylated FAK and c-Src. Densitometric analyses were performed using Adobe Photoshop (Adobe Systems Incorporated, San Jose, Calif.).

Lp-PLA2 = biological target: T1, Lp-PLA2 (Homo sapiens, UniProt Q13093); assay: PLA2 enzyme activity assay, Lp-PLA2; assay type: biochemical; conditions: recombinant human Lp-PLA2, data not shown
T1 sequence (Q13093 22-441): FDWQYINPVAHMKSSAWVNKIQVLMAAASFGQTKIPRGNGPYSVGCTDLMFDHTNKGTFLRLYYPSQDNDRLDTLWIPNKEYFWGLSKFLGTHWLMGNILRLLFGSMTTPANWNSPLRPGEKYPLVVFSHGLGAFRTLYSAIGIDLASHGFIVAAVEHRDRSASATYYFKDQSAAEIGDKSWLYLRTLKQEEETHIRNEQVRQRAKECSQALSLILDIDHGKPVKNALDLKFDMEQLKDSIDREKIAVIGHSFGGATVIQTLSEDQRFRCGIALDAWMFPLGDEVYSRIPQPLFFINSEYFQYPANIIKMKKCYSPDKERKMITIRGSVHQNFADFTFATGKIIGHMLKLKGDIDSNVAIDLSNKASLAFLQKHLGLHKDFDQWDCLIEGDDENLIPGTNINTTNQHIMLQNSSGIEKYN
Experimental: Recombinant human sPLA2 isoforms, Group IB, Group IIA, Group V, and Lp-PLA2 were obtained from R&D Systems and Cayman Chemical Co. sPLA2 enzyme activities in the presence of various concentrations of morelloflavone or other inhibitors were determined using a commercially available assay system according to the manufacturer's instructions (Cayman Chemical Co.). Thioetheramide-1-palmitylthio-2-palmitoylamido-1,2-dideoxy-sn-glycero-3-phosphorylcholine (T-PC) and methyl arachidonyl fluorophosphonate (MAFP) were used as inhibitors of sPLA2 (IB, IIA, and V) and Lp-PLA2, respectively, per manufacturers' instructions.

Ldlr−/−Apobec1−/− mice = assay: Immunohistochemical and TUNEL analysis of atherosclerotic lesions; assay type: in vivo, mouse; conditions: aortic root, 8 months diet
Source text: For the cross sectional analyses of atherosclerosis, the roots of the ascending aortae were embedded in OCT compound (Tissue-Tek®, Sakura-Fineteck U.S.A., Torrance, Calif.). The 5-μm cryostat sections were obtained at the levels of aortic valve leaflets and subjected to hematoxylin and eosin (H&E), TUNEL, and other immunohistochemical staining as described below. In both methods of atherosclerosis quantification, the images of aortae were digitally captured and stored in the TIFF format, using the ScanScope slide scanning system (Nikon, Melville, N.Y.). The quantification of the atherosclerotic area was performed by Image J software (NIH, Bethesda, Md.) and expressed at lesion areas (μm^2).
In order to identify within the intima vascular smooth muscle cells, macrophages, and proliferating cells, the tissue was stained using anti-smooth muscle cell alpha-actin (SMA) (catalog no. ab5694, Abcam, Cambridge, Mass.), anti-macrophage surface glycoproteins (F4/80, catalog no. ab6640, Abcam), and anti-Ki67 (Clone TEC-3, DAKO, Carpinteria, Calif.) antibodies, respectively, as described previously. Values are expressed as means±SD. Comparisons of parameters between two groups were made with the two-tailed Student's t test. When appropriate, ANOVA was performed to compare multiple groups. A value of P<0.05 was considered statistically significant.

[1] = tested on: vascular smooth muscle cells; assay: Lamellipodium formation assay; assay type: cell-based, mouse; design: effect on morphology of vascular smooth muscle cells: dose or concentration left out as unconfirmed; conditions: for lamellipodium index: 5% serum, 3 hrs
Experimental: Mouse vascular smooth muscle cells, isolated as described (13), were maintained in 231 media (Cascade Biologics, Portland, Oreg.) supplemented with SMGS (Cascade Biologics) in a humidified incubator at 37° C. with 5% CO2. Cells from passages 4-9 were used in all experiments. All experiments were performed in subconfluent, unsynchronized cells growing in SMGS except for the lamellipodium formation assay.
The lamellipodium formation assay was performed as described (14). In brief, mouse vascular smooth muscle cells (serum-starved for 24 hrs) were seeded onto fibronectin-coated wells of chamber slides (CultureSlide, BD BioCoat Fibronectin) and incubated with various concentrations of morelloflavone (0, 1, and 10 mM) in the presence or absence of serum for 3 hrs at 37° C. Then, cells were fixed with 4% paraformaldehyde, permeabilized with 0.1% Triton X-100, stained with Alexa Fluor 594-Phallidin (Invitrogen-Molecular Probes) and DRAQ5 (Biostatus, Ltd, Leicestershire, UK), and viewed with the use of a Leica DM6000 confocal microscope. Lamellipodium indices were calculated as the number of lamellipodia divided by the total number of cells counted.

SMILES: O=C1c2c(O)cc(O)cc2O[C@H](c2ccc(O)cc2)[C@H]1c1c(O)cc(O)c2c(=O)cc(-c3ccc(O)c(O)c3)oc12 [morelloflavone, 5,7, 4′, 5″, 7″, 3″, 4″-heptahydroxy-[3,8″]-flavonylflavanone]
- phosphorylation of c-Src (c-Src): inhibited; also recorded: robustly decreased phosphorylation; also recorded: blocks
- inhibition of Lp-PLA2 (Lp-PLA2): did not inhibit
- Ki-67-positive cells in atherosclerotic lesions (Ldlr−/−Apobec1−/− mice): 0.0011±0.0003 cells/μm^2
- Ki-67 index in atherosclerotic lesions (Ldlr−/−Apobec1−/− mice): 1.6±0.5%
- SMA-positive cells (SMA index) in atherosclerotic lesions (Ldlr−/−Apobec1−/− mice): 0.0026±0.0007 cells/μm^2
- SMA-positive cells (VSMCs) in atherosclerotic lesions (Ldlr−/−Apobec1−/− mice): 15.4±3.5 cells/section
- TUNEL index in atherosclerotic lesions (Ldlr−/−Apobec1−/− mice): 0.4±0.2%
- TUNEL-positive cells in atherosclerotic lesions (Ldlr−/−Apobec1−/− mice): 0.00025±0.00008 cells/μm^2
- macrophages (F4/80-positive cells) in the lesions (Ldlr−/−Apobec1−/− mice): 32.3±8.0 cells/section
- macrophages (F4/80 index) in the lesions (Ldlr−/−Apobec1−/− mice): 0.0042±0.0018 cells/μm^2
- reduction of SMA-positive cells per section vs control (Ldlr−/−Apobec1−/− mice): 43%
- reduction of SMA-positive cells per μm^2 vs control (Ldlr−/−Apobec1−/− mice): 32%
- lamellipodium index ([1]; 1 mM morelloflavone): 0.05±0.001
- lamellipodium index ([1]; 10 mM morelloflavone): 0.033±0.006
- effect on morphology of vascular smooth muscle cells ([1]; absence of serum, any concentration (0, 1)): did not change the morphology
- effect on lamellipodium indices / formation ([1]; serum stimulated, 1-10 mM): significantly decreased lamellipodium indices in a dose-dependent fashion; also recorded: failed to increase lamellipodium indices; also recorded: blocks
